Experimental data as given in patent US20250197372A1 (priority 2020, published 2025).
Like-named read-outs stand apart in the source and are kept apart here.

Columns and labels:
[1] = target: T1, recombinant human GBA (beta-glucocerebrosidase) (Homo sapiens, UniProt P04062); experiment: Beta-glucocerebrosidase (GBA, glucosylceramidase) assay (4-methylumbelliferyl-beta-D-pyranoside substrate, fluorescence); type: biochemical
T1 sequence (P04062 40-536): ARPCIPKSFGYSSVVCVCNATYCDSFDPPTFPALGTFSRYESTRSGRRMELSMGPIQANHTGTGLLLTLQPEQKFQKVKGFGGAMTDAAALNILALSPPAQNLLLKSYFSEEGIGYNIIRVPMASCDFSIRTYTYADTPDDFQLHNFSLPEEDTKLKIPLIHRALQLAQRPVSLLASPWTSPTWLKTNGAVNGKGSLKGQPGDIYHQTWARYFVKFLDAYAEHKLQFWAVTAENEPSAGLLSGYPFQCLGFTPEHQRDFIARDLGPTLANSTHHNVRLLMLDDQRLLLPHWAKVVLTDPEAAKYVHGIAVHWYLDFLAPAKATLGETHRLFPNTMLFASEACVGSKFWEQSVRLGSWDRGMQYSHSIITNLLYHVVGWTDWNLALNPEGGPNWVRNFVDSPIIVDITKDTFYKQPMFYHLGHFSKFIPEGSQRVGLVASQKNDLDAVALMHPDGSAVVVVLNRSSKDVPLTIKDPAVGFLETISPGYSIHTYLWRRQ
Summary of the method: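 Recombinant human GBA preincubated with compound dilutions 60 min at 37 °C, then 4-methylumbelliferyl-beta-D-pyranoside added for 60 min at 37 °C. Stopped at pH 10 (glycine/NaOH); fluorescence ex 365/em 440 nm. IC50 from 4-PL fit of inhibition relative to untreated enzyme.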

[2] = target: T2, recombinant alpha-glucosidase II (murine full-length glucosidase II, alpha and beta subunits, Glu 2) (Mus musculus, UniProt Q8BHN3); experiment: Alpha-glucosidase II assay (4-methylumbelliferyl-alpha-D-pyranoside substrate, fluorescence); type: biochemical
T2 construct: made in house; host or cells: HEK-293T cells transduced with BacMam viruses (75% alpha, 25% beta); protein harvested from culture supernatant

[3] = Glucosidase 2, read-out: Glu2 IC50

T2 sequence (O08795 15-521): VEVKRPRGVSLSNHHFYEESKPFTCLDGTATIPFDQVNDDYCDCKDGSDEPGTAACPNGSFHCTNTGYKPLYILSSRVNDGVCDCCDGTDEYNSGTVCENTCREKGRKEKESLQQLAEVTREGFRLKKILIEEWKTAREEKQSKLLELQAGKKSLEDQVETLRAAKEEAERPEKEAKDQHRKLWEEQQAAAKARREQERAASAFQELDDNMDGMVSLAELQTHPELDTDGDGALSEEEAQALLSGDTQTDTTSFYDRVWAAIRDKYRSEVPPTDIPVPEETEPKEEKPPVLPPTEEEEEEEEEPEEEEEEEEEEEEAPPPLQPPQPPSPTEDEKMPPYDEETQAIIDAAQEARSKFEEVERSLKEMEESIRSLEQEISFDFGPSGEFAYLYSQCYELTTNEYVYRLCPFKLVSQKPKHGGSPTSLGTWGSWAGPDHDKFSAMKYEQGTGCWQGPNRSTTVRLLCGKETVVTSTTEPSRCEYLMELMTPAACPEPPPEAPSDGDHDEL
T2 sequence (Q8BHN3 33-944): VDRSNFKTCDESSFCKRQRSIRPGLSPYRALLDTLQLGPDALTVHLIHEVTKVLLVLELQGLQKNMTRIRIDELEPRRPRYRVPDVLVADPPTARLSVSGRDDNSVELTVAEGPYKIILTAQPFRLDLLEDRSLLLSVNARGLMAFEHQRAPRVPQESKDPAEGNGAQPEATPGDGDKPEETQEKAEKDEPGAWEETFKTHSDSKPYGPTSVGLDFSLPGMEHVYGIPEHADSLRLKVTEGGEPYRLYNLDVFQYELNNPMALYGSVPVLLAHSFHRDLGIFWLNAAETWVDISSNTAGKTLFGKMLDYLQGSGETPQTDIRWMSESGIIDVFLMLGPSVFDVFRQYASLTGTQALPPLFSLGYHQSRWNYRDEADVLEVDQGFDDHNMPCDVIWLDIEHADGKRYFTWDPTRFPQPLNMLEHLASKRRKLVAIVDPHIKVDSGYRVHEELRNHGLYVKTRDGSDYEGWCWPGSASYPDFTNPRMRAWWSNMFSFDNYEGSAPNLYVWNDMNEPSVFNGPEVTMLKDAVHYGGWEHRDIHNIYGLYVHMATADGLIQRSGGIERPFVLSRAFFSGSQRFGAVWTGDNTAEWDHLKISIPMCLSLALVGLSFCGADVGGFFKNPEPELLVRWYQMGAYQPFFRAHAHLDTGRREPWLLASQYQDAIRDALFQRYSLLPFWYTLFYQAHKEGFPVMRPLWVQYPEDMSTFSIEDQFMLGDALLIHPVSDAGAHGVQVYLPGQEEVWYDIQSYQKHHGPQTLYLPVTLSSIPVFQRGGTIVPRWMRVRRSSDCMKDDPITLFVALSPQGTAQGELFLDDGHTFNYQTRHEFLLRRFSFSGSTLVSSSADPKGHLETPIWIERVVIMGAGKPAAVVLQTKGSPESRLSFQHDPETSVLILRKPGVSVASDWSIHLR

| SMILES | IC50 [1] [nM] | IC50 [2, 3] [nM] | IC50 [2] [nM] |
| --- | --- | --- | --- |
| COCCc1ccc(CCCCCN2C[C@H](O)[C@@H](O)[C@H](O)[C@H]2CO)cc1 [Compound 1307, (2R,3R,4R,5S)-2-(hydroxymethyl)-1-{5-[4-(2-methoxyethyl)phenyl]pentyl}piperidine-3,4,5-triol] | 5000 | 77 |  |
| [N-]=[N+]=Nc1ccc(NCCc2cc(CCN3C[C@H](O)[C@@H](O)[C@H](O)[C@H]3CO)ccc2C2CCCCC2)c([N+](=O)[O-])c1 [Compound 1171, (2R,3R,4R,5S)-1-[2-(3-{2-[(4-azido-2-nitrophenyl)amino]ethyl}-4-cyclohexylphenyl)ethyl]-2-(hydroxymethyl)piperidine-3,4,5-triol] | 204 | 1010 |  |
| CS(=O)(=O)c1cc(NCc2cccc(CN3C[C@H](O)[C@@H](O)[C@H](O)[C@H]3CO)c2)cc(-c2cccnn2)c1 [Compound 1040, (2R,3R,4R,5S)-2-(hydroxymethyl)-1-{[3-({[3-methanesulfonyl-5-(pyridazin-3-yl)phenyl]amino}methyl)phenyl]methyl}piperidine-3,4,5-triol] | > 100000 |  | 4610 |
| OC[C@@H]1[C@@H](O)[C@H](O)[C@@H](O)CN1Cc1ccc(CNc2cc(-c3cccnn3)cc(C3CC3)c2)cc1 [Compound 1012, (2R,3R,4R,5S)-1-{[4-({[3-cyclopropyl-5-(pyridazin-3-yl)phenyl]amino}methyl)phenyl]methyl}-2-(hydroxymethyl)piperidine-3,4,5-triol] | 32300 | 1320 |  |
| N#Cc1cc(NCCCCCCN2C[C@H](O)[C@@H](O)[C@H](O)[C@H]2CO)cc(-c2ncccn2)c1 [Compound 1130, 3-(pyrimidin-2-yl)-5-({6-[(2R,3R,4R,5S)-3,4,5-trihydroxy-2-(hydroxymethyl)piperidin-1-yl]hexyl}amino)benzonitrile] | 974 | 6 |  |
| [N-]=[N+]=Nc1ccc(NCCc2ccc(CCN3C[C@H](O)[C@@H](O)[C@H](O)[C@H]3CO)s2)c([N+](=O)[O-])c1 [Compound 1186, (2R,3R,4R,5S)-1-[2-(5-{2-[(4-azido-2-nitrophenyl)amino]ethyl}hiophen-2-yl)ethyl]-2-(hydroxymethyl)piperidine-3,4,5-triol] | 1280 | 1 |  |
| [N-]=[N+]=Nc1ccc(NCCNc2cc(Cl)cc(CCN3C[C@H](O)[C@@H](O)[C@H](O)[C@H]3CO)c2)c([N+](=O)[O-])c1 [Compound 1143, (2R,3R,4R,5S)-1-{2-[3-({2-[(4-azido-2-nitrophenyl)amino]ethyl}amino)-5-chlorophenyl]ethyl}-2-(hydroxymethyl)piperidine-3,4,5-triol] | 404 | 2 |  |
| OC[C@@H]1[C@@H](O)[C@H](O)[C@@H](O)CN1CCCCCCNc1ccc(-c2cccnn2)cc1Cl [Compound 1202, (2R,3R,4R,5S)-1-(6-{[2-chloro-4-(pyridazin-3-yl)phenyl]amino}hexyl)-2-(hydroxymethyl)piperidine-3,4,5-triol] | 3010 | < 1 |  |
| [N-]=[N+]=Nc1ccc(NCCc2ccc(CCN3C[C@H](O)[C@@H](O)[C@H](O)[C@H]3CO)cc2)c([N+](=O)[O-])c1 [Compound 1200, (2R,3R,4R,5S)-1-[2-(4-{2-[(4-azido-2-nitrophenyl)amino]ethyl}phenyl)ethyl]-2-(hydroxymethyl)piperidine-3,4,5-triol] | 1450 | 6 |  |
| OC[C@@H]1[C@@H](O)[C@H](O)[C@@H](O)CN1Cc1ccc(CNc2ccc(N3CCOCC3)cc2)cc1 [Compound 1068] | > 100000 | 1580 |  |
| Cc1cc(NCc2cccc(CN3C[C@H](O)[C@@H](O)[C@H](O)[C@H]3CO)c2)cc(-c2ncccn2)c1 [Compound 1035, (2R,3R,4R,5S)-2-(hydroxymethyl)-1-{[3-({[3-methyl-5-(pyrimidin-2-yl)phenyl]amino}methyl)phenyl]methyl}piperidine-3,4,5-triol] | > 100000 | 66500 |  |
| CS(=O)(=O)Nc1ccc(NCCCCCCN2C[C@H](O)[C@@H](O)[C@H](O)[C@H]2CO)c([N+](=O)[O-])c1 [Compound 1300, N-[3-nitro-4-({6-[(2R,3R,4R,5S)-3,4,5-trihydroxy-2-(hydroxy-methyl)piperidin-1-yl]hexyl}amino)phenyl]methanesulfonamide] | 26 | 14 |  |
| CS(=O)(=O)c1cc(NCc2ccc(CN3C[C@H](O)[C@@H](O)[C@H](O)[C@H]3CO)cc2)cc(-c2cccnn2)c1 [Compound 1058, (2R,3R,4R,5S)-2-(hydroxymethyl)-1-{[4-({[3-methanesulfonyl-5-(pyridazin-3-yl)phenyl]amino}methyl)phenyl]methyl}piperidine-3,4,5-triol] | > 100000 | 114 |  |
| OC[C@@H]1[C@@H](O)[C@H](O)[C@@H](O)CN1Cc1ccc(CNc2cc(C3CC3)cc(N3CCOCC3)c2)cc1 [Compound 1010, (2R,3R,4R,5S)-1-{[4-({[3-cyclopropyl-5-(morpholin-4-yl)phenyl]amino}methyl)phenyl]methyl}-2-(hydroxymethyl)piperidine-3,4,5-triol] | > 100000 | 1070 |  |
